From article PMC4805251, “Novel Antimicrobial Peptides EeCentrocins 1, 2 and EeStrongylocin 2 from the Edible Sea Urchin Echinus esculentus Have 6-Br-Trp Post-Translational Modifications” (PLoS ONE, 2016)
Where “and” joins values, the source holds several entries; their conditions need not be identical. Equal entries are not always repeated. Where two headings read alike, the source gives them in different places. Ends that are not written are not given here.

Assays:
Type in all cases: cell-based
Aureobasidium pullulans = tested on: Aureobasidium pullulans
Outline: (§1)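 Broth microdilution in potato dextrose broth with 4 × 10^5 spores/ml inoculum; peptides in water tested in two-fold dilutions from 100 to 0.1 μM. MIC taken as lowest concentration with no visible growth; triplicates, natural peptides run once.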

Rhodotorula sp. = tested on: Rhodotorula sp.
Outline: as §1

human red blood cells = test: Haemolytic activity assay; conditions: human red blood cells in PBS, 1 h at 37°C, absorbance at 550 nm, 0.05% Triton X-100 = 100%, duplicates
Experimental: Synthesised peptide analogues of EeCentrocin 1 and 2 were screened for eukaryotic cell-toxicity with a haemolytic activity assay using human red blood cells as described previously. The assay was performed on 96-well U-shaped microtiter plates (Nagle Nunc) with 50 μl peptide sample, 40 μl phosphate-buffered saline (PBS) and 10 μl red blood cells. The final peptide concentrations ranged from 100 to 0.1 μM in two-fold serial dilutions. After one hour of incubation at 37°C in a shaker, the plate was centrifuged at 200 g for 5 min and the supernatants (60 μl) were carefully transferred to a new flat-bottomed polycarbonate microtiter plate (Nagle Nunc) and absorbance at 550 nm was measured on a Synergy H1 multimode reader (BioTek, VT, USA). Cell suspension added 0.05% Triton X-100 (Sigma-Aldrich, MO, USA) in PBS served as positive (100% haemolysis) control and cell suspension added PBS served as negative (0% haemolysis) control. The percent haemolysis was calculated using the formula [(Asample-Abaseline)/(Atriton-Abaseline)]×100. The experiment was performed in duplicates.

[1] = potato dextrose broth, 24 h at room temperature, visual, no visible fungal growth, value of Table 2, triplicates

With “WGHKLRSSWNKVKHAVKKGAGYASGACRVLGH [EeCentrocin 2 HC]” the “MIC raw data A. pullulans” value (Aureobasidium pullulans; parallel 1 of three) was 25 µM, the “MIC raw data A. pullulans” value (Aureobasidium pullulans; parallel 2 of three) was 25 µM and the “MIC raw data A. pullulans” value (Aureobasidium pullulans; parallel 3 of three) was 25 µM. The “MIC A. pullulans” value (Aureobasidium pullulans; [1]) was 25 µM, the “MIC raw data Rhodotorula sp.” value (Rhodotorula sp.; parallel 1 of three) was 3.13 µM and the “MIC raw data Rhodotorula sp.” value (Rhodotorula sp.; parallel 2 of three) was 3.13 µM. For the same sequence, the “MIC raw data Rhodotorula sp.” value (Rhodotorula sp.; parallel 3 of three) was 3.13 µM, the “MIC Rhodotorula sp.” value (Rhodotorula sp.; [1]) was 3.13 µM and the “% haemolysis” value (human red blood cells; 25.0 μM) was 11.7%. The “% haemolysis” value (human red blood cells; 50.0 μM) was 18.9% and the “% haemolysis” value (human red blood cells; 100 μM) was 56.3% and 56.4%.
